Results as given in patent US20250170090A1, “METHOD FOR PREVENTING OR TREATING DISEASE OR DISORDER ASSOCIATED WITH ANTINEOPLASTIC AGENT” (ONQUALITY PHARMACEUTICALS CHINA LTD., priority 2022, published 2025).
Read-outs that look alike come from different tables or passages of the source.

Experiments:
[1] = system: anti-tumor agent-induced hand-foot syndrome; test: Comparison of different mechanism compounds in preventing sorafenib-induced hand-foot syndrome in rats (Table 6); assay type: in vivo; conditions: Sorafenib 80 mg/kg once a day, Days 15
Protocol: After the rats (about 200 g) were acclimated for one week, they were divided into groups of 10 and then subjected to gavage administration experiments. The anti-tumor agent (the anti-tumor agent modeled by sorafenib) was dissolved in a mixed solution of Cremophor EL:ethanol=1:1, and diluted to the required concentration with PBS (diluted about 3 times with PBS solution) before gavage administration. After gavage, the hind paws of the rats were treated with ointments of different mechanisms (NO-releasing agent group, NO-releasing agent combined with clinical drug group, NSAID group), while the control group was treated with a blank ointment. After the application of the ointment, the rats were placed in a fixed cylinder for 4 hours. After 4 hours, the rats were released, and the residual drugs in the application site were wiped off with clean water, and the rats were returned to the cage. Different treatment groups were only applied once a day. Gavage and ointment application were repeated every day until the end of the experiment.
Table 6 lists the animal experimental combinations of various anti-tumor agents and ointments from different treatment groups, as well as the corresponding experimental results (where the value in the control rate column=the incidence rate of hand-foot syndrome in the blank group−the incidence rate of hand-foot syndrome in the treatment group).

HUVEC cells = test: CCK-8 cell viability: alleviation of proliferative toxicity of anti-tumor agents on HUVEC cells (Tables 7-1, 7-2); assay type: cell-based; conditions: Homo sapiens, 24 h, NO-NSAID 100 μM, percentage increase in viable cells vs anti-tumor agent alone, read-out: Response rate % (average)
Protocol: The cultured HUVEC cells were digested the suspended, counted, and seed into a 96-well plate with 5,000-10,000 cells per well. The wells are divided into the following groups: blank control group, anti-tumor agent group, anti-tumor agent+NO-NSAID group, anti-tumor agent solvent group, NO-NSAID control group. Wherein each well of each group contained a basic medium, and the final liquid volume contained in each well was about 100 μL. The grouping situation was as follows: • 1) Blank control group: no solution was added except normally replacing the medium; • 2) Anti-tumor agent group: added the anti-tumor agent solution (the final concentration was shown in Table 7-1 and Table 7-2, the solvent of the anti-tumor agent solution was DMSO); • 3) Anti-tumor agent+NO-NSAID group: added the anti-tumor agent solution and the NO-NSAID solution (the final concentrations of anti-tumor agent and NO-NSAID were shown in Table 7-1 and Table 7-2, and according to the solubility of NO-NSAID, the solvent of NO-NSAID solution was selected as ethanol or sterile water, and minor volume differences in each group were adjusted by added the corresponding solvent); • 4) Anti-tumor agent solvent group: an equal volume of DMSO as contained in the corresponding anti-tumor agent solution in Group 2) was added; • 5) NO-NSAID control group: the same volume and type of solvent (for example, ethanol or sterile water) corresponding to the NO-NSAID contained in group 3) was added.
The anti-tumor agent solvent group was not involved in data processing and was only used as a reference for evaluating experimental system error. The NO-NSAID solvent control group was used for data correction to eliminate the influence of the solvent on the results.
After culturing for 24-48 hours, the Cell Counting Kit-8 (CCK-8) detection kit (C0037, Shanghai Beyotime Biotechnology Co., Ltd., Beyotime Biotechnology) was used to determine the cell viability. This allows for the calculation of the proliferative toxicity of anti-tumor agent on cell and the mitigating effect of NO-NSAID on proliferative toxicity. The results were statistically analyzed and plotted using GraphPad Prism 6.0 software and t test.

[2] = system: hand-foot syndrome induced by anti-tumor agents; test: Prevention of hand-foot syndrome induced by anti-tumor agents in rats, NO-NSAID ointment on hind paws (Table 2-2); assay type: in vivo, SD rats; conditions: Rattus norvegicus, topical, 120 h, Sorafenib 80 mg/kg once a day, Days 5, read-out: Control rate
From the text: A rat animal model was constructed, and the anti-tumor agents shown in Table 2-2 were respectively administered to 8-week-old female SD rats by daily oral gavage. […] Therefore, rats serve as an excellent animal model for simulating side effects (such as hand-foot syndrome) caused by anti-tumor agents.
After the rats (about 200 g) were fed and adapted for one week, they were divided into a NO-NSAID group and a control group, with 10 rats in each group, and a gavage administration test was conducted. The various anti-tumor agents were dissolve in a mixed solution of Cremophor EL:ethanol=1:1. The anti-tumor agent solution were diluted with PBS to the required concentration (about 3 times with PBS solution) before gavage administration. After gavage, an ointment containing NO-NSAID was applied to the hind paws of the rats, while the control group was applied with a blank ointment. After application, the rats were placed in a fixed cylinder for 4 hours. After 4 hours, the rats were released and the residual ointment was wiped off with clean water, then the rats were returned to the cage. The gavage frequency of inhibitors was shown in Table 2-2, and NO-NSAID was only applied once a day. The gavage and application operations were repeated daily until the end of the experiment.
Table 2-2 lists the animal experimental combinations of various anti-tumor agents and NO-NSAID ointments, as well as the corresponding experimental results (wherein the value in the control rate column=the hand-foot syndrome incidence rate in the blank group−the hand-foot syndrome incidence rate in the treatment group).

Compound | activation at 100 µM (HUVEC cells; Afatinib (10 μM)) [%] | activation at 100 µM (HUVEC cells; Anlotinib (5 μM)) [%] | activation at 100 µM (HUVEC cells; Apatinib (10 μM)) [%] | activation at 100 µM (HUVEC cells; Axitinib (10 μM)) [%] | activation at 100 µM (HUVEC cells; Cabozantinib (5 μM)) [%] | activation at 100 µM (HUVEC cells; Dabrafenib (10 μM)) [%] | activation at 100 µM (HUVEC cells; Dacomitinib (5 μM)) [%] | activation at 100 µM (HUVEC cells; Encorafenib (5 μM)) [%] | activation at 100 µM (HUVEC cells; Erdafitinib (10 μM)) [%] | activation at 100 µM (HUVEC cells; Everolimus (5 μM)) [%] | activation at 100 µM (HUVEC cells; Famitinib (5 μM)) [%] | activation at 100 µM (HUVEC cells; Fruquintinib (10 μM)) [%] | activation at 100 µM (HUVEC cells; Gefitinib (10 μM)) [%] | activation at 100 µM (HUVEC cells; Infigratinib (15 μM)) [%] | activation at 100 µM (HUVEC cells; Lapatinib (5 μM)) [%] | activation at 100 µM (HUVEC cells; Lenvatinib (10 μM)) [%] | activation at 100 µM (HUVEC cells; Olmutinib (10 μM)) [%] | activation at 100 µM (HUVEC cells; Regorafenib (5 μM)) [%] | activation at 100 µM (HUVEC cells; Selumetinib (5 μM)) [%] | activation at 100 µM (HUVEC cells; Sorafenib (5 μM)) [%] | other results
CC(=O)Oc1ccccc1C(=O)O [Acetylsalicylic acid] | – | – | – | – | – | – | – | – | – | – | – | – | – | – | – | – | – | – | – | – | Control rate ([1]; ointment 1.00% wt): 14.29%
COc1ccc2cc(C(C)C(=O)OCC(CO[N+](=O)O)C[N+](=O)[O-])ccc2c1 (centres unmarked) [Compound A9] | 32 | 58 | 62 | 45 | 0 | 35 | 39 | 15 | 42 | 7 | 33 | 56 | 40 | 29 | 40 | 43 | 42 | 40 | 36 | 48 | activation at 100 µM (HUVEC cells; Sunitinib (5 μM)): 16%; activation at 100 µM (HUVEC cells; Vemurafenib (5 μM)): 39%; responders at 1 % ([2]; ointment 1% wt): 28.6%; responders at 5 % ([2]; ointment 5% wt): 33.3%
CC(C(=O)OCC(CO[N+](=O)[O-])O[N+](=O)[O-])c1ccc(-c2ccccc2)c(F)c1 (centres unmarked) [Compound A10] | 56 | 27 | 58 | -7 | 49 | 42 | 37 | 33 | 23 | 21 | 49 | 59 | 40 | 32 | 32 | 57 | 48 | 48 | 46 | 13 | activation at 100 µM (HUVEC cells; Sunitinib (5 μM)): 21%; activation at 100 µM (HUVEC cells; Vemurafenib (5 μM)): 63%
CC(C)Cc1ccc(C(C)C(=O)O)cc1 (centres unmarked) [Ibuprofen] | – | – | – | – | – | – | – | – | – | – | – | – | – | – | – | – | – | – | – | – | Control rate ([1]; ointment 2.00% wt): 0%
COc1ccc2cc([C@H](C)C(=O)O)ccc2c1 [Naproxen] | – | – | – | – | – | – | – | – | – | – | – | – | – | – | – | – | – | – | – | – | Control rate ([1]; ointment 2.50% wt): 16.67%
O=[N+]([O-])OCC(CO[N+](=O)[O-])O[N+](=O)[O-] [Nitroglycerin] | – | – | – | – | – | – | – | – | – | – | – | – | – | – | – | – | – | – | – | – | Control rate ([1]; ointment 0.20% wt): 60%
